This passage reports Kd and inhibition results from PMC5833849, “Sensitizing tumor cells to conventional drugs: HSP70 chaperone inhibitors, their selection and application in cancer models” (Cell Death & Disease, 2018).

The target in test [1] is T1, Hsp70 (Homo sapiens, UniProt P0DMV8).
T1 construct: gene HSPA1A; Recombinant human Hsp70
Description: microscale thermophoresis (also DARTS; inhibition of substrate binding and luciferase refolding by Hsp70).

Test [2] concerns the target T1, Hsp70. Description: inhibition of Hsp70 binding to carboxymethylated lactalbumin ([…] at […]); luciferase refolding ([…] at […]). The format is biochemical.
Test [3] addresses T1, Hsp70. The description is as above. The class given is biochemical. The source holds these as a separate data set.

Read-outs that look alike come from different tables or passages of the source.

T1 sequence (P0DMV8 2-641): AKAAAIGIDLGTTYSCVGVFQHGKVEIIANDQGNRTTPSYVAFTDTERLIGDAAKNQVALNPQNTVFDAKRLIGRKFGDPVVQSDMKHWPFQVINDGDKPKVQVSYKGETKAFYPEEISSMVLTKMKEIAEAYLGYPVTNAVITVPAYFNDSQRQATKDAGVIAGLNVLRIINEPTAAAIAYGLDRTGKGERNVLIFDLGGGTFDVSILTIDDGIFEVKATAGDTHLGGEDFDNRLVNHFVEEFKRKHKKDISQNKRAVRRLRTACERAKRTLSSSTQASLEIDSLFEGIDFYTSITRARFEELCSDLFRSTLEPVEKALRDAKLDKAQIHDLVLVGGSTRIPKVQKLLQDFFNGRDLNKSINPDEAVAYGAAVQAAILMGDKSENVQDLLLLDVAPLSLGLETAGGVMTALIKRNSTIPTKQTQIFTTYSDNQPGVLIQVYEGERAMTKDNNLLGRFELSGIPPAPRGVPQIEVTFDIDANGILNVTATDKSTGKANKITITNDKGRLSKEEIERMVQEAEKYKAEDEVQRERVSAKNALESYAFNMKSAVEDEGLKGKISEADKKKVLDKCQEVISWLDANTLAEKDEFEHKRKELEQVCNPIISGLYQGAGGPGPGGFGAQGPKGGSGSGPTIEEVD

The Kd is the constant that tells how readily two partners part at equilibrium. Low values mean higher affinity, high ones lower affinity. As to `COc1cc2c(c(OC)c1OC)-c1ccc(NCCN)c(=O)cc1[C@@H](NC(C)=O)CC2` [AEAC], in test [1], the Kd was found to be 149 ± 49.6 nM.

What is called inhibition is the percentage by which the read-out fell short of the control. High values mean a response far below the control, low ones a response near the control. As for `CCn1c(=Cc2cccc[n+]2CC)sc(=C2Sc3ccccc3N2C)c1=O` [MKT-077], the inhibition at 1 µM in test [2] came out at 27%. Turning to `N#Cc1ccc(COC[C@H]2O[C@@H](n3c(NCc4ccc(Cl)c(Cl)c4)nc4c(N)ncnc43)[C@H](O)[C@@H]2O)cc1` [VER-155008], at 1 µM the inhibition in test [3] was 19%.
